Data from patent publication US11241013B2, “Benzimidazole compounds as agricultural chemicals” (REDAG CROP PROTECTION LTD, priority 2017, dated 2022).

Assays:
Pythium ultimum = assay: Amended agar assay; type: cell-based; conditions: Globisporangium ultimum, amended PDA agar, % reduction in colony growth vs control plate, 18° C.
Procedure: Testing was carried out on potato dextrose agar (PDA) amended with each compound at a test concentration of typically 20 ppm or 2 ppm. Amended agar was poured into three replicate 9 cm petri dishes. Each replicate dish was inoculated in the centre with a 5 mm agar plug taken from the leading edge of a culture aged between 2 and 7 days old; the age of the culture was dependant on the growth rate of the pathogen being tested. The test pathogens were Pythium ultimum and Phytophthora cinnamomi. Plates were incubated at 18° C. and the diameter of each colony measured before growth on the fastest growing plate reached the plate edge. This varied between 2 and 7 days depending on the growth rate of test pathogens. The % reduction in colony growth compared to the control plate was calculated for each pathogen. The results are provided in Table 1, in which D represents no control detected at this concentration; C represents up to 50% control; B from 50 to 99% control; and A represents a control of greater than 99%, i.e. no detectable colony growth.
Alternatively, or in addition, the same assay was conducted at descending test concentrations with 5-fold dilutions typically down to 0.032 ppm though sometimes as low as 0.00026 ppm, and an EC50 (the concentration at which 50% control would be achieved) was determined. The results are provided in Table 1 in which G represents no control detected at 20 ppm, F represents an EC50 of ≥20 ppm and E represents an EC50 of less than 20 ppm.

Phytophthora cactorum = assay: 96 well plate test; type: cell-based; conditions: 96 well plate assay, agar amended to 20, 2, 0.2 and 0.02 ppm, assessed after 2 to 3 days, read-out: EC50 Phytophthora spp. (Phytophthora cactorum)
Procedure: Compounds were screened in 96 well plates with 10 compounds per plate. Each compound was screened using agar amended to 20, 2, 0.2 and 0.02 ppm, with proline at 50 and 10 ppm and 0.2% DMSO used as controls. Each test concentration and standard was replicated twice on a plate. Compounds were screened against Phytophthora cactorum. The agar used in the test is a 1% potato dextrose agar. 1000 spores/mL agar were added to the appropriate agar. A ×10 stock solution in 2% DMSO was produced for each dose i.e. 200, 20, 2 and 0.2 ppm, and 10 μl of this added to the appropriate wells on the plate. An equivalent amount of 2% DMSO and proline stock at 500 and 100 ppm were added for the controls. To each well 90 μl of the appropriate agar spore suspension was added to give the required final well concentrations. Plates were incubated at room temperature (18° C.) and assessed after 2 to 3 days. The amount of pathogen growth in each well was compared to the DMSO controls and an EC50 concentration was calculated. The results are provided in Table 1 in which H represents no control detected at 20 ppm, G represents no control detected at 2 ppm (where the highest test concentration in the assay was 2 ppm), F represents an EC50 of ≥20 ppm, E represents an EC50 of less than 20 ppm.

| Structure (SMILES) | inhibition of growth at 2 ppm (Pythium ultimum) [%] | EC50 (Phytophthora cactorum) [µg/mL] | inhibition of growth at 20 ppm (Pythium ultimum) [%] |
| --- | --- | --- | --- |
| CNc1cccc(COc2nc3ccccc3n2-c2nnnn2C)n1 [Example 48, N-Methyl-6-(((1-(1-methyl-1H-tetrazol-5-yl)-1H-benzo[d]imidazol-2-yl)oxy)methyl)pyridin-2-amine] | > 99 | < 20 |  |
| CCCNc1cccc(COc2nc3c(Cl)cccc3n2-c2nnnn2C)n1 [Example 88] | > 99 | < 20 |  |
| Cc1ccnc(COc2nc3ccccc3n2-c2nnnn2C)c1 [Example 11] | > 99 | < 20 | > 99 |
| Cn1nnnc1-n1c(OCc2cccc(NCc3cccc(C#N)c3)n2)nc2ccccc21 [Example 93] | > 99 | < 20 |  |
| COc1c(C)cnc(COc2nc3ccccc3n2-c2nnnn2C)c1C [Example 12] | > 99 | < 20 | > 99 |
| CCCCNc1cccc(COc2nc3c(Cl)cccc3n2-c2nnnn2C)n1 [Example 98] | > 99 | < 20 |  |
| Cn1nnnc1-n1c(OCc2ccccn2)nc2c(Cl)cccc21 [Example 30] | > 99 | < 20 |  |
| Cn1nnnc1-n1c(OCc2cccc(NCc3ccccn3)n2)nc2ccccc21 [Example 40] | > 99 | < 20 |  |
| CC(C)CCNc1cccc(COc2nc3ccccc3n2-c2nnnn2C)n1 [Example 37] | > 99 | < 20 |  |
| Cn1nnnc1-n1c(OCc2cccc(NCCc3ccccc3)n2)nc2c(Cl)cccc21 [Example 73] | > 99 | < 20 |  |
| CC(C)Nc1cccc(COc2nc3ccccc3n2-c2nnnn2C)n1 [Example 50, N-Isopropyl-6-(((1-(1-methyl-1H-tetrazol-5-yl)-1H-benzo[d]imidazol-2-yl)oxy)methyl)pyridin-2-amine] | > 99 | < 20 |  |
| Cn1nnnc1-n1c(OCc2cccc(NCCOc3ccccc3)n2)nc2c(Cl)cccc21 [Example 74] | > 99 | < 20 |  |
| Cc1ccc(COc2nc3ccccc3n2-c2nnnn2C)nc1 [Example 6] | > 99 | ≥ 20 | > 99 |
| Cn1nnnc1-n1c(OCc2cccc(NCC3CC3)n2)nc2ccccc21 [Example 47] | > 99 | < 20 |  |
| CCOc1ccnc(COc2nc3ccccc3n2-c2nnnn2C)c1 [Example 76] | > 99 | ≥ 20 |  |
| CC(C)Nc1cccc(COc2nc3c(Cl)cccc3n2-c2nnnn2C)n1 [Example 103] | > 99 | < 20 |  |
| Cc1cccc(CNc2cccc(COc3nc4ccccc4n3-c3nnnn3C)n2)c1 [Example 95] | > 99 | < 20 |  |
| Cn1nnnc1-n1c(OCc2nc3ccccc3n2C)nc2c(Br)cccc21 [Example 105] | > 99 | < 20 |  |
| Cn1nnnc1-n1c(OCc2nccs2)nc2ccccc21 [Example 16] | < 50 | ≥ 20 |  |
| Cn1nnnc1-n1c(OCc2cccc(NCc3ccccc3)n2)nc2ccccc21 [Example 35, N-Benzyl-6-(((1-(1-methyl-1H-tetrazol-5-yl)-1H-benzo[d]imidazol-2-yl)oxy)methyl)pyridin-2-amine] | > 99 | < 20 |  |
| COc1ccnc(COc2nc3ccccc3n2-c2ncncc2Cl)c1 [Example 22] | 50 to 99 | ≥ 20 |  |
| Cc1c(OCC(F)(F)F)ccnc1COc1nc2ccccc2n1-c1nnnn1C [Example 14] | > 99 | < 20 | > 99 |
| Cn1nnnc1-n1c(OCc2cccc(Br)n2)nc2ccccc21 [Example 17, 2-((6-bromopyridin-2-yl)methoxy)-1-(1-methyl-1H-tetrazol-5-yl)-1H-benzo[d]imidazole] | < 50 | ≥ 20 |  |
| COc1ccnc(COc2nc3ccccc3n2-c2nnnn2C)c1OC [Example 13] | 50 to 99 | < 20 | > 99 |
| CCCNc1cccc(COc2nc3ccccc3n2-c2nnnn2C)n1 [Example 42] | > 99 | < 20 |  |

| Structure (SMILES) | inhibition of growth at 2 ppm (Pythium ultimum) [%] | EC50 (Phytophthora cactorum) [µg/mL] | inhibition of growth at 20 ppm (Pythium ultimum) [%] |
| --- | --- | --- | --- |
| Cc1cccnc1COc1nc2ccccc2n1-c1nnnn1C [Example 3] | 50 to 99 | ≥ 20 | > 99 |
| Cn1nnnc1-n1c(OCc2cccc(NCc3ccc(F)cc3)n2)nc2ccccc21 [Example 86] | > 99 | < 20 |  |
| CC(C)CCNc1cccc(COc2nc3c(Cl)cccc3n2-c2nnnn2C)n1 [Example 90] | > 99 | < 20 |  |
| Cn1nnnc1-n1c(OCc2cccc(NC3CCCC3)n2)nc2ccccc21 [Example 81] | > 99 | < 20 |  |
| Cn1nnnc1-n1c(OCc2cccc(NCC3CC3)n2)nc2c(Br)cccc21 [Example 100] | > 99 | < 20 |  |
| Cn1nnnc1-n1c(OCc2cccc(N)n2)nc2c(Br)cccc21 [Example 106] | 50 to 99 | < 20 |  |
| CSc1ccnc(COc2nc3ccccc3n2-c2nnnn2C)c1 [Example 55] | > 99 | < 20 |  |
| COCCCOc1ccnc(COc2nc3ccccc3n2-c2ncncc2Cl)c1C [Example 10] | 50 to 99 | ≥ 20 |  |
| COc1ccnc(COc2nc3ccccc3n2-c2nnnn2C)c1 [Example 4] | > 99 | < 20 | > 99 |
| CCCNc1cccc(COc2nc3c(Br)cccc3n2-c2nnnn2C)n1 [Example 99] | > 99 | < 20 |  |
| COc1cc(F)cc2c1nc(OCc1ccccn1)n2-c1nnnn1C [Example 78] | 50 to 99 | < 20 |  |
| Cn1nnnc1-n1c(OCc2cc(N3CCOCC3)ccn2)nc2c(Cl)cccc21 [Example 75] | 50 to 99 | ≥ 20 |  |
| COc1ccc(COc2nc3ccccc3n2-c2nnnn2C)nc1 [Example 56] | < 50 | ≥ 20 |  |
| CCC(C)Nc1cccc(COc2nc3ccccc3n2-c2nnnn2C)n1 (centres unmarked) [Example 82] | > 99 | < 20 |  |
| Cn1nnnc1-n1c(OCc2cccc(NCc3cccc(OC(F)(F)F)c3)n2)nc2ccccc21 [Example 96] | > 99 | < 20 |  |
| Cn1nnnc1-n1c(OCc2cccc(NCc3ccc(Cl)cc3)n2)nc2ccccc21 [Example 84] | > 99 | < 20 |  |
| Cn1nnnc1-n1c(OCc2cccc(N)n2)nc2c(Cl)cccc21 [Example 59] | > 99 | < 20 |  |
| COc1cccc(CNc2cccc(COc3nc4ccccc4n3-c3nnnn3C)n2)c1 [Example 94] | > 99 | < 20 |  |
| Cn1nnnc1-n1c(OCc2cccc(NCc3cccc(Cl)c3)n2)nc2ccccc21 [Example 85] | > 99 | < 20 |  |
| Cc1c(OC(F)(F)C(F)(F)F)ccnc1COc1nc2c(Cl)cccc2n1-c1nnnn1C [Example 60] | > 99 | < 20 |  |
| Cn1nnnc1-n1c(OCc2nc3ccccc3n2C)nc2c(Cl)cccc21 [Example 66] | > 99 | < 20 |  |
| COc1ccnc(COc2nc3c(Cl)cccc3n2-c2nnnn2C)c1 [Example 61] | > 99 | < 20 |  |
| Cn1nnnc1-n1c(OCc2cccc(NCCC(F)(F)F)n2)nc2ccccc21 [Example 83] | > 99 | < 20 |  |
| Cn1nnnc1-n1c(OCc2cccc(NCC3CC3)n2)nc2c(Cl)cccc21 [Example 87] | > 99 | < 20 |  |
| Clc1cncnc1-n1c(OCc2ccccn2)nc2ccccc21 [Example 8] | 50 to 99 | ≥ 20 |  |
